Experiments:
[1] = tested on: RS4;11 (BCL-2 dependent acute lymphoblastic leukemia cell line); assay: RS4;11 Cell Proliferation Assay; type: cell-based; settings: Homo sapiens, RS4;11 cells, read-out: Cellular proliferation assay (IC50, nM) RS4
Procedure, shortened: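 Viability measured via CellTiter-Glo luminescence after a 48 h, 37 °C exposure to compounds (10 points, highest 1 μM). Seeding was 50,000 RS4;11 cells per well in 10% FBS RPMI-1640; IC50 given as mean.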

[2] = Metabolic Stability Study, liver microsome incubation (human); type: in vitro ADME; settings: human liver microsomes 0.5 mg/mL, 1 μM compound, NADPH; for half-life at 1 μM: NA^# = very stable, beyond the detection limits, read-out: T1/2 (min) Human; for microsomal CLint at 1 μM: read-out: CLint (μL × min^−1 × mg^−1) Human
Procedure, shortened: (§1)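 Test compounds (1 μM) incubated at 37° C with 0.5 mg/mL liver microsomes plus NADPH regenerating system; samples quenched at 0, 30 and 60 min. Parent loss measured by LC-MS/MS, giving CLint and T1/2, with CLint normalised to microsomal protein concentration.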

[3] = target: recombinant human Bcl-2-G101V protein (Homo sapiens (Human), UniProt P10415, G101V); assay: Bcl-2-G101V TR-FRET Assay; type: binding; settings: Bcl-2 G101V mutant, TR-FRET; read-out: Biochemical assay (IC50, nM) Bcl-2 G101V
Procedure, shortened: (§2)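 Compounds were titrated at increasing concentrations against the Bcl-2-G101V–ligand interaction. TR-FRET signals were then read (ex 337 nm; em 490/520 nm). Percent inhibition was derived from the 490-to-520 nm ratio, and IC50 from a four-parameter logistic equation.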

[4] = tested on: recombinant human Bcl-2-G101V protein; assay: Bcl-2-G101V TR-FRET Assay; type: binding; settings: for Ratio of Bcl-2 G101V/WT: ratio of biochemical IC50 Bcl-2 G101V / Bcl-2 WT
Procedure, shortened: as §2

[5] = Metabolic Stability Study, liver microsome incubation (mouse); type: in vitro ADME; settings: mouse liver microsomes 0.5 mg/mL, 1 μM compound, NADPH; for half-life at 1 μM: NA^# = very stable, beyond the detection limits, read-out: T1/2 (min) mouse; for microsomal CLint at 1 μM: read-out: CLint (μL × min^−1 × mg^−1) mouse
Procedure, shortened: as §1

Row | SMILES | IC50 [1] [nM] | half-life at 1 μM [2] [min] | microsomal CLint at 1 μM [2] [µL/min/mg] | IC50 [3] [nM] | Ratio of Bcl-2 G101V/WT [4] | half-life at 1 μM [5] [min] | microsomal CLint at 1 μM [5] [µL/min/mg] | ratio of IC50 of Bcl-2 G101V/Bcl-2 wt, compared with Example F132b in WO2019210828 and ABT-199 (venetoclax) ([4]; comparison in words)
1 | COc1cc(CN2CCN(C3CC4(C3)CN(c3ccc(C(=O)NS(=O)(=O)c5ccc(NC[C@H]6CC[C@](C)(O)CC6)c([N+](=O)[O-])c5)c(Oc5cnc6[nH]cc(F)c6c5)c3)C4)[C@H](c3ccccc3C(C)C)C2)ccc1C [Example 274, 2-((3-fluoro-1H-pyrrolo[2,3-b]pyridin-5-yl)oxy)-N-((4-((((1r,4r)-4-hydroxy-4-methylcyclohexyl)methyl)amino)-3-nitrophenyl)sulfonyl)-4-(6-((R)-2-(2-isopropylphenyl)-4-(3-methoxy-4-methylbenzyl)piperazin-1-yl)-2-azaspiro[3.3]heptan-2-yl) benzamide] | 0.15 | 344 | 4 | 0.85 | 1.5 | 289 | 4.8 | 
2 | CC(C)c1ccccc1C1CN(Cc2ccccc2F)CCN1C1CC2(CCN(c3ccc(C(=O)NS(=O)(=O)c4ccc(NC[C@H]5CC[C@](C)(O)CC5)c([N+](=O)[O-])c4)c(Oc4cnc5[nH]ccc5c4)c3)CC2)C1 (some centres unmarked) [Example 46, 2-((1H-pyrrolo[2,3-b]pyridin-5-yl)oxy)-4-(2-(4-(2-fluorobenzyl)-2-(2-isopropylphenyl)piperazin-1-yl)-7-azaspiro[3.5]nonan-7-yl)-N-((4-((((1r,4r)-4-hydroxy-4-methylcyclohexyl)methyl)amino)-3-nitrophenyl)sulfonyl)benzamide] | 0.91 | 153 | 9.1 | 2.7 | 7.9 | 131 | 10.5 | 
3 | COc1ccc(CN2CCN(C3CC4(C3)CN(c3ccc(C(=O)NS(=O)(=O)c5ccc(NC[C@H]6CC[C@](C)(O)CC6)c([N+](=O)[O-])c5)c(Oc5cnc6[nH]cc(F)c6c5)c3)C4)[C@H](c3ccccc3C(C)C)C2)cc1OC [Example 141a, 4-(6-((R)-4-(3,4-dimethoxybenzyl)-2-(2-isopropylphenyl)piperazin-1-yl)-2-azaspiro[3.3]heptan-2-yl)-2-((3-fluoro-1H-pyrrolo[2,3-b]pyridin-5-yl)oxy)-N-((4-((((1r,4r)-4-hydroxy-4-methylcyclohexyl)methyl)amino)-3-nitrophenyl)sulfonyl)benzamide] | 0.166 | 343 | 4 | 0.13 | 2.5 | 18100 | 0.07 | much lower
4 | COc1cc(CN2CCN(C3CC4(CCN(c5ccc(C(=O)NS(=O)(=O)c6ccc(NC[C@H]7CC[C@](C)(O)CC7)c([N+](=O)[O-])c6)c(Oc6cnc7[nH]ccc7c6)c5)CC4)C3)[C@H](c3ccccc3C(C)C)C2)ccc1C1CC1 [Example 257] | 0.15 | 372 | 3.7 | 0.99 | 2.5 | 254 | 5.5 | 

— patent US20240376097A1, “BCL-2 Inhibitor” (BeiGene Ltd., priority 2020, published 2024)
